In PubChem BioAssay AID266 (DTP/NCI, 2004) one finds T/C data, which are given here for 23 compounds.

The test system of the assay is Nude mice, LX-1 lung xenograft intrarenal, tumor weight T/C. Description: NCI In Vivo Anticancer Drug Screen. Data for tumor model Human Lung LX-1 Xenograft (intrarenal inoculation) in NU/NU BALB/C (nude) mice. Conditions: endpoint: mean tumor weight change, higher = larger tumour. Here is the method:
The antitumor activity of compounds was measured in mice bearing transplantable tumors. Survival or tumor size were measured and the results are expressed as the measurement made in the treated group (T) divided by the measurement made in the vehicle treated control group (C). The tumor model used in this assay is Human Lung LX-1 Xenograft (intrarenal inoculation) in NU/NU BALB/C (nude) mice
(In general: In xenograft studies the graft and the host belong to different species.)

The mark [1] stands for this setting: dose: 18.75 mg/kg/injection, schedule: Q04DX003 (sc), vehicle: Klucel (hydroxypropylcellulose) (HPC).
Where [2] appears, read: dose: 37.5 mg/kg/injection, schedule: Q04DX003 (sc), vehicle: Klucel (hydroxypropylcellulose) (HPC).
The mark [3] stands for this setting: dose: 75.0 mg/kg/injection, schedule: Q04DX003 (sc), vehicle: Klucel (hydroxypropylcellulose) (HPC).
Setting [4] is: dose: 300.0 mg/kg/injection, schedule: Q04DX003 (sc), vehicle: saline with Tween-80.
The mark [5] stands for this setting: dose: 600.0 mg/kg/injection, schedule: Q04DX003 (sc), vehicle: saline with Tween-80.
[6] abbreviates: dose: 1200.0 mg/kg/injection, schedule: Q04DX003 (sc), vehicle: saline with Tween-80.
Setting [7] is: dose: 2400.0 mg/kg/injection, schedule: Q04DX003 (sc), vehicle: saline with Tween-80.
Where [8] appears, read: dose: 50.0 mg/kg/injection, schedule: Q01DX010 (sc), vehicle: saline with Tween-80.
[9] abbreviates: dose: 200.0 mg/kg/injection, schedule: Q01DX010 (sc), vehicle: saline.
The mark [10] stands for this setting: dose: 400.0 mg/kg/injection, schedule: Q01DX010 (sc), vehicle: saline.

Inconclusive results are not listed.

Turning to `COc1c(C=O)c2c(c(OC)c1OC)-c1ccc(OC)c(=O)cc1[C@@H](NC(C)=O)CC2`, the T/C under setting [1] was 83 % of control, the T/C under setting [2] was 59 % of control and the T/C under setting [3] was 32 % of control.
For the compound `CCS/C(SC)=C(/c1ccccc1)[P+](c1ccccc1)(c1ccccc1)c1ccccc1`, the T/C was 79 % of control (dose: 9.38 mg/kg/injection, schedule: Q04DX003 (sc), vehicle: Klucel (hydroxypropylcellulose) (HPC)); 76 % of control under setting [1]; 110 % of control under setting [2].
On to `C1CC[N-]CC1.[Cl][Pt+2][Cl].[NH-]C1CC1`, for which the T/C by setting is: (dose: 25.0 mg/kg/injection, schedule: Q04DX003 (sc), vehicle: water) 106 % of control; (dose: 50.0 mg/kg/injection, schedule: Q04DX003 (sc), vehicle: water) 71 % of control; (dose: 100.0 mg/kg/injection, schedule: Q04DX003 (sc), vehicle: water) 51 % of control.
For the compound `CC(/C=C/c1ccccc1)=Nc1ccccc1`, the T/C reads like this: under setting [4], 63 % of control; under setting [5], 108 % of control; under setting [6], 83 % of control; under setting [7], 100 % of control.
`CNc1nc(N(C)C)nc(N(C)C)n1`: the T/C reads like this: (dose: 30.0 mg/kg/injection, schedule: Q01DX010 (sc), vehicle: other) 169 % of control; (dose: 60.0 mg/kg/injection, schedule: Q01DX010 (sc), vehicle: other) 29 % of control.
On to `O=CC(O)C(O)C(O)C(O)CO` (stereo not given), for which the T/C is 103 % of control (dose: 75.0 mg/kg/injection, schedule: Q04DX003 (ip), vehicle: saline); 101 % of control (dose: 150.0 mg/kg/injection, schedule: Q04DX003 (ip), vehicle: saline); 115 % of control (dose: 300.0 mg/kg/injection, schedule: Q04DX003 (ip), vehicle: saline); 88 % of control (dose: 600.0 mg/kg/injection, schedule: Q04DX003 (ip), vehicle: saline); 95 % of control (dose: 1200.0 mg/kg/injection, schedule: Q04DX003 (ip), vehicle: saline).
For the compound `CC1=C(/C=C/C(C)=C/C=C/C(C)=C/C(=O)O)C(C)(C)CCC1`, the T/C under setting [8] is 75 % of control.
`CC[As](=O)(O)CC`: the T/C is, setting by setting: (dose: 25.0 mg/kg/injection, schedule: Q04DX003 (sc), vehicle: saline) 77 % of control; (dose: 50.0 mg/kg/injection, schedule: Q04DX003 (sc), vehicle: saline) 82 % of control; (dose: 100.0 mg/kg/injection, schedule: Q04DX003 (sc), vehicle: saline) 51 % of control; (dose: 200.0 mg/kg/injection, schedule: Q04DX003 (sc), vehicle: saline) 70 % of control.
`CN(N=O)C(N)=O`: the T/C runs as follows: (dose: 12.5 mg/kg/injection, schedule: Q01DX010 (sc), vehicle: saline with Tween-80) -68 % of control; (dose: 25.0 mg/kg/injection, schedule: Q01DX010 (sc), vehicle: saline with Tween-80) -54 % of control; under setting [8], -69 % of control.
As to `CC1=C2CC(C)(C)/C=C\C(=O)/C(C)=C\C3=C[C@H](C)C[C@]3(O2)C1=O`, the T/C (dose: 6.0 mg/kg/injection, schedule: Q01DX010 (sc), vehicle: Klucel (hydroxypropylcellulose) (HPC)) was 81 % of control; the T/C (dose: 12.0 mg/kg/injection, schedule: Q01DX010 (sc), vehicle: Klucel (hydroxypropylcellulose) (HPC)) was 168 % of control; the T/C (dose: 24.0 mg/kg/injection, schedule: Q01DX010 (sc), vehicle: Klucel (hydroxypropylcellulose) (HPC)) was 236 % of control; the T/C (dose: 50.0 mg/kg/injection, schedule: Q01DX010 (sc), vehicle: Klucel (hydroxypropylcellulose) (HPC)) was 33 % of control.
Regarding `COc1ccc(OC)c(/C=C/c2ccnc3ccccc23)c1`, the T/C is 65 % of control under setting [8]; 152 % of control (dose: 100.0 mg/kg/injection, schedule: Q01DX010 (sc), vehicle: saline with Tween-80); 251 % of control (dose: 200.0 mg/kg/injection, schedule: Q01DX010 (sc), vehicle: saline with Tween-80); 121 % of control (dose: 400.0 mg/kg/injection, schedule: Q01DX010 (sc), vehicle: saline with Tween-80).
Take `NC(=O)/C=C/C(=O)c1c(Cl)cccc1Cl`: the T/C (dose: 9.0 mg/kg/injection, schedule: Q04DX003 (sc), vehicle: saline with Tween-80) was 83 % of control and the T/C (dose: 18.0 mg/kg/injection, schedule: Q04DX003 (sc), vehicle: saline with Tween-80) was 79 % of control.
Turning to `NC(=O)NO`, the T/C is, setting by setting: under setting [9], 60 % of control; under setting [10], 105 % of control.
`CCCCCn1c(C)cc(/C=C\c2ccc3cc(C)ccc3[n+]2C)c1C`: the T/C by setting is: (dose: 0.25 mg/kg/injection, schedule: Q01DX010 (sc), vehicle: Klucel (hydroxypropylcellulose) (HPC)) 214 % of control; (dose: 1.0 mg/kg/injection, schedule: Q01DX010 (sc), vehicle: Klucel (hydroxypropylcellulose) (HPC)) 212 % of control; (dose: 2.0 mg/kg/injection, schedule: Q01DX010 (sc), vehicle: Klucel (hydroxypropylcellulose) (HPC)) 119 % of control.
In the case of `C1CN2CN3CCN(CN1C3)C2`, the T/C is, setting by setting: (dose: 50.0 mg/kg/injection, schedule: Q01DX010 (sc), vehicle: saline) 68 % of control; under setting [9], 48 % of control; under setting [10], 23 % of control.
In the case of `COC(=O)Nc1cn2cc(C(=O)c3cccs3)ccc2n1`, the T/C (dose: 300.0 mg/kg/injection, schedule: Q04DX003 (sc), vehicle: Klucel (hydroxypropylcellulose) (HPC)) was 94 % of control; the T/C (dose: 600.0 mg/kg/injection, schedule: Q04DX003 (sc), vehicle: Klucel (hydroxypropylcellulose) (HPC)) was 96 % of control; the T/C (dose: 1200.0 mg/kg/injection, schedule: Q04DX003 (sc), vehicle: Klucel (hydroxypropylcellulose) (HPC)) is 54 % of control; the T/C (dose: 2400.0 mg/kg/injection, schedule: Q04DX003 (sc), vehicle: Klucel (hydroxypropylcellulose) (HPC)) was 99 % of control.
Take `COc1cccc2c1C(=O)c1c(O)c3c(c(O)c1C2=O)C[C@@](O)(C(C)=O)C[C@@H]3OC1CC(N)C(O)C(C)O1` (stereo not given in full): the T/C is 109 % of control (dose: 2.0 mg/kg/injection, schedule: Q01DX010 (sc), vehicle: saline); 153 % of control (dose: 4.0 mg/kg/injection, schedule: Q01DX010 (sc), vehicle: saline); 31 % of control (dose: 8.0 mg/kg/injection, schedule: Q01DX010 (sc), vehicle: saline).
Turning to `[N-]=[N+]=[N-]`, the T/C (dose: 6.0 mg/kg/injection, schedule: Q04DX003 (ip), vehicle: water) is 68 % of control and the T/C (dose: 24.0 mg/kg/injection, schedule: Q04DX003 (ip), vehicle: water) was 73 % of control.
For the compound `NC(CCl)=NCC12CC3CC(CC(C3)C1)C2`, the T/C runs as follows: under setting [1], 157 % of control; under setting [3], 110 % of control.
As for `C[n+]1c(-c2cccc3ccccc23)c2cc(N)ccc2c2ccccc21`, the T/C is 164 % of control (dose: 1.5 mg/kg/injection, schedule: Q04DX003 (sc), vehicle: saline); 113 % of control (dose: 6.0 mg/kg/injection, schedule: Q04DX003 (sc), vehicle: saline); 112 % of control (dose: 24.0 mg/kg/injection, schedule: Q04DX003 (sc), vehicle: saline); 78 % of control (dose: 48.0 mg/kg/injection, schedule: Q04DX003 (sc), vehicle: saline).
Take `CC(O)CCC(=O)c1ccoc1` (stereo not given): the T/C (dose: 15.0 mg/kg/injection, schedule: Q01DX010 (ip), vehicle: saline) is 75 % of control and the T/C (dose: 30.0 mg/kg/injection, schedule: Q01DX010 (ip), vehicle: saline) is 121 % of control.
Turning to `[Cl][Hg][Cl]`, the T/C by setting is: (dose: 2.5 mg/kg/injection, schedule: Q04DX003 (ip), vehicle: saline) 92 % of control; (dose: 5.0 mg/kg/injection, schedule: Q04DX003 (ip), vehicle: saline) 82 % of control; (dose: 10.0 mg/kg/injection, schedule: Q04DX003 (ip), vehicle: saline) 58 % of control.
`COc1cc(C(C)(C)C)cc(OC)c1C(O)(c1c(OC)cc(C(C)(C)C)cc1OC)c1c(OC)cc(C(C)(C)C)cc1OC`: the T/C is 60 % of control under setting [4], 54 % of control under setting [5], 54 % of control under setting [6] and 73 % of control under setting [7].
